Experiments:
BT-549 = test: panel of 60 human tumor cell lines, growth inhibition (Breast Cancer); settings: BT-549
DU-145 = test: panel of 60 human tumor cell lines, growth inhibition (Prostate Cancer); settings: DU-145
SF-295 = test: panel of 60 human tumor cell lines, growth inhibition (CNS Cancer); settings: SF-295
HOP-62 = test: panel of 60 human tumor cell lines, growth inhibition (Non-Small Cell Lung Cancer); settings: HOP-62
SK-MEL-28 = test: panel of 60 human tumor cell lines, growth inhibition (Melanoma); settings: SK-MEL-28
K-562 = test: panel of 60 human tumor cell lines, growth inhibition (Leukemia); settings: K-562
A549/ATCC = test: panel of 60 human tumor cell lines, growth inhibition (Non-Small Cell Lung Cancer); settings: A549/ATCC
LOX IMVI = test: panel of 60 human tumor cell lines, growth inhibition (Melanoma)
OVCAR-5 = test: panel of 60 human tumor cell lines, growth inhibition (Ovarian Cancer); settings: OVCAR-5
OVCAR-3 = test: as above; settings: OVCAR-3
NCI-H322M = test: panel of 60 human tumor cell lines, growth inhibition (Non-Small Cell Lung Cancer)
U251 = test: panel of 60 human tumor cell lines, growth inhibition (CNS Cancer); settings: U251
UACC-257 = test: panel of 60 human tumor cell lines, growth inhibition (Melanoma); settings: UACC-257
OVCAR-8 = test: panel of 60 human tumor cell lines, growth inhibition (Ovarian Cancer); settings: OVCAR-8
SK-MEL-5 = test: panel of 60 human tumor cell lines, growth inhibition (Melanoma); settings: 8K-MEL-5
RXF 393 = test: panel of 60 human tumor cell lines, growth inhibition (Renal Cancer); settings: RXF 393
SK-OV-3 = test: panel of 60 human tumor cell lines, growth inhibition (Ovarian Cancer); settings: SK-OV-3
SK-MEL-2 = test: panel of 60 human tumor cell lines, growth inhibition (Melanoma); settings: SK-MEL-2

C=C1C(=O)O[C@H]2[C@H]1CC/C(COC(=O)CCC(=O)N1CCC(C)CC1)=C\CC[C@@]1(C)O[C@@H]21 [JVM 2-70]
Percent Growth (BT-549; Log10 Concentration −4.0): −96%
Percent Growth (BT-549; Log10 Concentration −5.0): −10%
Percent Growth (BT-549; Log10 Concentration −6.0): 71%
Percent Growth (BT-549; Log10 Concentration −7.0): 86%
Percent Growth (BT-549; Log10 Concentration −8.0): 81%
GI50 (BT-549; NCI five dose): 1.82 µM
TGI (BT-549; NCI five dose): 7.55E−6
Percent Growth (DU-145; Log10 Concentration −4.0): −89%
Percent Growth (DU-145; Log10 Concentration −5.0): 26%
Percent Growth (DU-145; Log10 Concentration −6.0): 95%
Percent Growth (DU-145; Log10 Concentration −7.0): 106%
Percent Growth (DU-145; Log10 Concentration −8.0): 107%
GI50 (DU-145; NCI five dose): 4.44 µM
TGI (DU-145; NCI five dose): 1.68E−5
Percent Growth (SF-295; Log10 Concentration −4.0): −72%
Percent Growth (SF-295; Log10 Concentration −5.0): 74%
Percent Growth (SF-295; Log10 Concentration −6.0): 93%
Percent Growth (SF-295; Log10 Concentration −7.0): 93%
Percent Growth (SF-295; Log10 Concentration −8.0): 89%
GI50 (SF-295; NCI five dose): 14.7 µM
TGI (SF-295; NCI five dose): 3.23E−5
Percent Growth (HOP-62; Log10 Concentration −4.0): −68%
Percent Growth (HOP-62; Log10 Concentration −5.0): 78%
Percent Growth (HOP-62; Log10 Concentration −6.0): 91%
Percent Growth (HOP-62; Log10 Concentration −7.0): 92%
Percent Growth (HOP-62; Log10 Concentration −8.0): 86%
GI50 (HOP-62; NCI five dose): 15.5 µM
TGI (HOP-62; NCI five dose): 3.41E−5
Percent Growth (SK-MEL-28; Log10 Concentration −4.0): −79%
Percent Growth (SK-MEL-28; Log10 Concentration −5.0): 4%
Percent Growth (SK-MEL-28; Log10 Concentration −6.0): 95%
Percent Growth (SK-MEL-28; Log10 Concentration −7.0): 100%
Percent Growth (SK-MEL-28; Log10 Concentration −8.0): 89%
GI50 (SK-MEL-28; NCI five dose): 3.1 µM
TGI (SK-MEL-28; NCI five dose): 1.11E−5
Percent Growth (K-562; Log10 Concentration −4.0): −38%
Percent Growth (K-562; Log10 Concentration −5.0): 7%
Percent Growth (K-562; Log10 Concentration −6.0): 90%
Percent Growth (K-562; Log10 Concentration −7.0): 109%
Percent Growth (K-562; Log10 Concentration −8.0): 109%
GI50 (K-562; NCI five dose): 3.06 µM
TGI (K-562; NCI five dose): 1.45E−5
Percent Growth (A549/ATCC; Log10 Concentration −4.0): −68%
Percent Growth (A549/ATCC; Log10 Concentration −5.0): 79%
Percent Growth (A549/ATCC; Log10 Concentration −6.0): 93%
Percent Growth (A549/ATCC; Log10 Concentration −7.0): 96%
Percent Growth (A549/ATCC; Log10 Concentration −8.0): 97%
GI50 (A549/ATCC; NCI five dose): 15.8 µM
TGI (A549/ATCC; NCI five dose): 3.47E−5
Percent Growth (LOX IMVI; Log10 Concentration −4.0): −84%
Percent Growth (LOX IMVI; Log10 Concentration −5.0): 4%
Percent Growth (LOX IMVI; Log10 Concentration −6.0): 91%
Percent Growth (LOX IMVI; Log10 Concentration −7.0): 96%
Percent Growth (LOX IMVI; Log10 Concentration −8.0): 96%
GI50 (LOX IMVI; NCI five dose): 2.95 µM
TGI (LOX IMVI; NCI five dose): 1.10E−5
Percent Growth (OVCAR-5; Log10 Concentration −4.0): −89%
Percent Growth (OVCAR-5; Log10 Concentration −5.0): 41%
Percent Growth (OVCAR-5; Log10 Concentration −6.0): 87%
Percent Growth (OVCAR-5; Log10 Concentration −7.0): 87%
Percent Growth (OVCAR-5; Log10 Concentration −8.0): 86%
GI50 (OVCAR-5; NCI five dose): 6.36 µM
TGI (OVCAR-5; NCI five dose): 2.06E−5
Percent Growth (OVCAR-3; Log10 Concentration −4.0): −96%
Percent Growth (OVCAR-3; Log10 Concentration −5.0): −2%
Percent Growth (OVCAR-3; Log10 Concentration −6.0): 88%
Percent Growth (OVCAR-3; Log10 Concentration −7.0): 105%
Percent Growth (OVCAR-3; Log10 Concentration −8.0): 109%
GI50 (OVCAR-3; NCI five dose): 2.85 to 6 µM
TGI (OVCAR-3; NCI five dose): 9.47E−6
Percent Growth (NCI-H322M; Log10 Concentration −4.0): −83%
Percent Growth (NCI-H322M; Log10 Concentration −5.0): 93%
Percent Growth (NCI-H322M; Log10 Concentration −6.0): 102%
Percent Growth (NCI-H322M; Log10 Concentration −7.0): 108%
Percent Growth (NCI-H322M; Log10 Concentration −8.0): 102%
GI50 (NCI-H322M; NCI five dose): 17.6 µM
TGI (NCI-H322M; NCI five dose): 3.39E−5
Percent Growth (U251; Log10 Concentration −4.0): −90%
Percent Growth (U251; Log10 Concentration −5.0): 90%
Percent Growth (U251; Log10 Concentration −6.0): 99%
Percent Growth (U251; Log10 Concentration −7.0): 95%
Percent Growth (U251; Log10 Concentration −8.0): 95%
GI50 (U251; NCI five dose): 16.7 µM
TGI (U251; NCI five dose): 3.16E−5
Percent Growth (UACC-257; Log10 Concentration −4.0): −86%
Percent Growth (UACC-257; Log10 Concentration −5.0): 23%
Percent Growth (UACC-257; Log10 Concentration −6.0): 83%
Percent Growth (UACC-257; Log10 Concentration −7.0): 92%
Percent Growth (UACC-257; Log10 Concentration −8.0): 91%
GI50 (UACC-257; NCI five dose): 3.57 µM
TGI (UACC-257; NCI five dose): 1.64E−5
Percent Growth (OVCAR-8; Log10 Concentration −4.0): −88%
Percent Growth (OVCAR-8; Log10 Concentration −5.0): 15%
Percent Growth (OVCAR-8; Log10 Concentration −6.0): 89%
Percent Growth (OVCAR-8; Log10 Concentration −7.0): 95%
Percent Growth (OVCAR-8; Log10 Concentration −8.0): 94%
GI50 (OVCAR-8; NCI five dose): 3.37 µM
TGI (OVCAR-8; NCI five dose): 1.39E−5
Percent Growth (SK-MEL-5; Log10 Concentration −4.0): −93%
Percent Growth (SK-MEL-5; Log10 Concentration −5.0): 42%
Percent Growth (SK-MEL-5; Log10 Concentration −6.0): 96%
Percent Growth (SK-MEL-5; Log10 Concentration −7.0): 99%
Percent Growth (SK-MEL-5; Log10 Concentration −8.0): 98%
GI50 (SK-MEL-5; NCI five dose): 7.17 µM
TGI (SK-MEL-5; NCI five dose): 2.05E−5
Percent Growth (RXF 393; Log10 Concentration −4.0): −88%
Percent Growth (RXF 393; Log10 Concentration −5.0): −54%
Percent Growth (RXF 393; Log10 Concentration −6.0): 91%
Percent Growth (RXF 393; Log10 Concentration −7.0): 101%
Percent Growth (RXF 393; Log10 Concentration −8.0): 105%
GI50 (RXF 393; NCI five dose): 1.91 µM
TGI (RXF 393; NCI five dose): 4.24E−6
Percent Growth (SK-OV-3; Log10 Concentration −4.0): −10%
Percent Growth (SK-OV-3; Log10 Concentration −5.0): 95%
Percent Growth (SK-OV-3; Log10 Concentration −6.0): 99%
Percent Growth (SK-OV-3; Log10 Concentration −7.0): 101%
Percent Growth (SK-OV-3; Log10 Concentration −8.0): 92%
GI50 (SK-OV-3; NCI five dose): 26.8 µM
TGI (SK-OV-3; NCI five dose): 8.06E−5
Percent Growth (SK-MEL-2; Log10 Concentration −4.0): −82%
Percent Growth (SK-MEL-2; Log10 Concentration −5.0): 68%
Percent Growth (SK-MEL-2; Log10 Concentration −6.0): 108%
Percent Growth (SK-MEL-2; Log10 Concentration −7.0): 112%
Percent Growth (SK-MEL-2; Log10 Concentration −8.0): 106%
GI50 (SK-MEL-2; NCI five dose): 13.1 µM
TGI (SK-MEL-2; NCI five dose): 2.83E−5

— patent US9469650B2, “Melampomagnolide B derivatives” (BOARD OF TRUSTEES OF THE UNIVERSITY OF ARKANSAS, priority 2013, dated 2016)
